Compound | melting point [°C]
CC(=O)N(C)c1cccc(S(=O)(=O)c2ccc(N)cc2)c1 | 178 to 180
COc1cc(Nc2c(C#N)cnc3cc(-c4cccc(CCN5CCOCC5)c4)ccc23)c(Cl)cc1Cl | 146 to 148
CCc1nc2c(-c3c(C)cc(C)cc3C)ncnc2n1Cc1ccccc1 | 121 to 122
COc1cc(C)c([N+](=O)[O-])cc1F | 95 to 95.5
COc1ccc(O)c2c1SC1CC3C(NC(=S)c4ccccc4)C(O)=C(C(N)=O)C(=O)C3(O)C(O)=C1C2=O (configuration not stated) | 223
CC(C)(c1ccccc1)c1cccc(S(=O)(=O)NC(CCCNC(=N)N)C(=O)O)c1 (configuration not stated) | 122 to 124
CCCNC(=O)C1(CCCCP(=O)(c2ccccc2)c2ccccc2)c2ccccc2-c2ccccc21 | 163 to 165
Cc1ccc(C)c(CNc2c(NC(C)(C)C)c(=O)c2=O)c1 | 246 to 247
COc1cc([C@H]2C(C#N)=C(N)Oc3c2ccc(NC(=O)CN(C)C(=O)OC2c4ccccc4-c4ccccc42)c3N)cc(Br)c1OC | 128 to 130
C=Cc1cn(-c2c(Cl)cc(C(F)(F)F)cc2Cl)cc1C#N | 55 to 60
O=C1CC(O)c2ccccc21 (configuration not stated) | 182 to 187
O=c1c2c(n(-c3ccccc3)c3ncccc13)OC(CBr)C2 (configuration not stated) | 187 to 188
CCCCNC(=O)NC(=N)c1ccccc1 | 139 to 141
O=C1[C@H]2CCC[C@H]2Nc2ccccc2N1Cc1cccc2ccccc12 (relative stereo) | 126 to 128
Clc1cnc(Sc2cccs2)nc1 | 65
O=C1c2ccccc2C(=O)N1CC(=O)N1c2ccccc2N(Cc2ccc3ccccc3c2)C(=O)C2CCCC21 (configuration not stated) | 238 to 239
Nc1nc2[nH]c(CCC#Cc3cscc3C(=O)N[C@@H](CCC(=O)O)C(=O)O)cc2c(=O)[nH]1 | 181 to 182
Cc1cc(N(C)C)cc(C)c1NC(NCCCCCCCc1ccc(C(C)(C)C)cc1)=C1C(=O)COC1=O | 144 to 147
CS(=O)(=O)c1cccc(NC(=O)c2cnn3c(C4CC4)cc(-c4ccc(C(F)(F)F)cc4)nc23)c1 | 231 to 234
Cc1nc(-c2cn(Cc3ccccc3)nn2)sc1C(=O)NCc1ccccc1 | 108 to 109
CCOC(=O)C(CC(=O)OC1CC2CCC1(C)C2(C)C)(NC(=O)OCc1ccccc1)C(N)=O (configuration not stated) | 105 to 106
Cc1[nH]cnc1CSCCNC1=C([N+](=O)[O-])CCCN1 | 206
CCN1C(=O)c2cccnc2Sc2ccccc21 | 148 to 149
CCCN1CCN(C(=O)C(Cl)Cl)CC1 | 88
COc1ccc(OC)c2c1C[C@](O)(C1(C)OCCO1)CC21SCCS1 | 143 to 145
O=C(NCc1cccnc1)[NH+]([O-])c1cccc2ccccc12 (configuration not stated) | 188
O=C(CC1(c2cccc(C(F)(F)F)c2F)CC1)C(=O)Nc1ccc2c(c1)COC2=O | 165 to 166

Compound | melting point [°C]
COc1cc2c(cc1Cl)CC(C)OC2c1ccc([N+](=O)[O-])cc1 (configuration not stated) | 118 to 120
COCCOc1cc2c(Nc3ccc(Sc4nccn4C)c(Cl)c3)c(C#N)cnc2cc1N1CCC(N2CCCC2)CC1 | 238 to 241
CN1CNC(=S)N(c2ccc(Cl)cc2)C1 | 178 to 179
CN1C(=O)C(c2cccc(OCC3CC3)c2)(c2cnn(CC(F)(F)F)c2)N=C1N (configuration not stated) | 78 to 80
N#Cc1cccc(N2Cc3ccccc3CN(C3CCNCC3)C2=O)c1 | 116
O=C(O)C(CC(c1ccc(OCc2ccc3ccccc3n2)cc1)c1ccc(OCc2ccc3ccccc3n2)cc1)=NO | 104 to 108
CCN1CCc2ccc(C(=O)CCC(=O)N3CCC(c4ccc(Cl)cc4)CC3)cc2CC1 | 156 to 157
COc1cc2c(cc1O)CC(C)(C)N(Cc1cc(OC)c(OC)c(OC)c1)C2 | 143 to 147
COc1ccc(-n2nc(C(C)(C)C)cc2NC(=O)c2cccc3cc(Oc4cc(NCCN(C)C)ncn4)ccc23)cc1 | 116 to 117
O=C(Oc1c(F)c(F)c(F)c(F)c1F)[C@H]1CCC(=O)N1C(=O)OCc1ccccc1 | 81 to 82
CC(=O)C(O)C1OC(n2cc(F)c(=O)[nH]c2=O)CC1(O)C(C)=O (configuration not stated) | 148 to 149
O=C(O)COc1ccc2c(c1)Cc1sc(S(=O)(=O)CCC(c3ccccc3)c3ccccc3)nc1-2 | 172 to 174
COc1ccc(Cl)c(NC(=O)N(C)c2cc(Nc3ccc(N4CCN(C)CC4)cc3)ncn2)c1Cl | 162 to 163
COc1ccc(NC2=NN(c3cccnc3)CC2)cc1 | 116 to 119
CC(O)(c1ccccc1)c1cncs1 (configuration not stated) | 86 to 87
Cc1ccccc1CC(=O)N1C[C@@H]2C(=O)CCC(c3ccccc3)(c3ccccc3)[C@@H]2C1 (racemic) | 196
O=C1C(=Cn2ccnc2)CSc2ccc(Cl)cc21 | 139 to 141
COC(=O)c1cc(OC)cc(C(=O)OC)c1 | 108 to 109
CSc1ccc(Br)cc1C(=O)Cn1cccc1 | 138 to 139
CC(C)(C)N(NC(=O)c1ccccc1)C(=O)c1cccnc1 | 60 to 63
CCN(CC)C(=O)CN1C(=O)C(NC(=O)Nc2ccccc2Cl)N=C(c2ccccc2)c2ccccc21 (configuration not stated) | 173 to 175
CC(=NO)c1nccc(OCC(F)(F)F)n1 | 179 to 181
CCCN(CCCCN1CCN(c2ccccc2)CC1)C1CCc2nc(N)sc2C1 (configuration not stated) | 156
CC1(C)CCc2c(N3CCOCC3)nc3sc4c(NCc5cccc6ccccc56)ncnc4c3c2C1 | 266 to 267
CCCN(CCC)Cc1csc(-c2ncn3c2CN(C)C(=O)c2c(Cl)cccc2-3)n1 | 121 to 123
Cc1cccc(-c2cc(C(F)(F)F)n3cnc(C#N)c3n2)c1 | 202

Next, values leading:

melting point [°C] | Compound
203 to 205 | COc1cccc2c3c(c(=O)[nH]c12)CCCN3c1ccccc1C
88 to 91 | CCCn1cc(CO)c(=O)c2ccccc21
178 to 190 | Cc1nc(N2N=C(c3ccc([N+](=O)[O-])cc3)c3cc4c(cc3CC2C)OCO4)cs1 (configuration not stated)
70 | CC(C)(O)CN(c1ccc(F)cc1)[C@H]1c2cc(C#N)ccc2OC(C)(C)[C@@H]1O
125 to 126 | CC(C)N1CCC(Oc2ccc3[nH]ncc3c2)CC1
164 to 165 | CCCCNC(=O)Nc1ccc(-c2ccncc2)c(C)n1
114 to 116 | COc1ccc(C=CC(=O)N2CC(CCl)c3c2cc(N)c2ccccc32)cc1 (configuration not stated)
188 to 190 | COc1ccc2cnc(=O)[nH]c2c1C(C)C
123 to 125 | CCC(=O)NCC(CCO)c1cccc2ccc(OC)cc12 (configuration not stated)
153 to 155 | O=C(O)CCC(=O)c1ccc(-c2cccc(F)c2)cc1
148 to 150 | COC(=O)c1sc2cc(OCc3cccnc3)ccc2c1Cl
88 to 90 | COc1cccc2cc(-c3ccc(OCCN4CCCC4)cc3)sc12
164 to 165 | CC(C)(C)c1ccc(C=NOCCOc2ccc(C(=O)O)c(OCc3ccc(C(F)(F)F)cc3)c2)cc1
61 to 63 | CCC[C@H](CO)Nc1nc(-c2ccc(Br)cc2)cs1
> 200 | CCOC(=O)CC[C@H](NC(=O)c1ccc(C=Cc2cnc3nc(NC(C)=O)nc(O)c3c2)cc1)C(=O)OCC
213 to 214 | CC1(C)CC1C(=O)Nc1ccc(C2=NNC(=O)CC2)cc1 (configuration not stated)
89 to 91 | CCOC(=O)CNc1cc(Cl)nc(Cl)n1
166 to 169 | O=C(Cn1c(-c2nonc2NCCCO)nc2ccccc21)c1ccc(Cl)cc1
103 to 104 | CC(C)Oc1ccc(CCCOc2nn(Cc3ccccc3)cc2CC(=O)O)c(OCc2ccc(Cl)cc2Cl)c1
156 to 157 | Fc1ccc(-c2cc3cccc(Cl)n3n2)cc1
138 to 139 | Cn1c(Sc2cccc(C(F)(F)F)c2)nc2c(-c3cccc(C(=O)NCCO)c3)cccc21
114 to 115 | CNC(=O)[C@H]1O[C@@H](n2cnc3c(NCc4cc(Cl)ccc4OCc4ccccc4)ncnc32)[C@H](O)[C@@H]1N

melting point [°C] | Compound
116 to 117 | Cc1ccc(Cn2ncnc2C(C)NS(=O)(=O)c2ccc(Cl)s2)cc1 (configuration not stated)
95 to 100 | COc1ccc(Oc2c(C)cc(N)cc2C)cc1C(C)C
69 | CC(=O)Nc1cc([N+](=O)[O-])ccc1OCCCN(C)C
> 250 | CCc1ccc(Nc2nc3cc(NC(=O)c4ccc(CC)cc4)ccc3o2)cc1
159 to 160 | CCOC(=O)c1c(O)c2c(CC)nc(CC)cc2[nH]c1=O
361 to 363 | O=C(O)c1cc(=O)[nH]c2ccc(I)cc12
206 to 208 | Cc1c(-c2ccccc2)oc2c(C(=O)NCCO)cccc2c1=O
315 to 320 | CCCn1cc2c(C3C(=O)Nc4ccc(Br)cc43)nc(NC3CCNC3)nc2n1 (configuration not stated)
240 to 242 | NC(=O)c1cc2ccccc2nc1N
108 to 110 | CC(C)C(NS(=O)(=O)c1ccc(Br)cc1)C(=O)OC(C)(C)C (configuration not stated)
188 to 190 | CCS(=O)(=O)Cc1cccc(-c2nc(=O)c3ccccc3s2)n1
71 to 73 | CCOC(=O)CN1Cc2ccccc2CC(N)C1=O (configuration not stated)
205 to 208 | Cc1ccc(NC(=O)c2ccccc2)c(C(=O)O)c1
166 | CCOC(=O)COc1ccc(OCc2ccccc2)cc1C(Nc1ccc(C(N)=S)cc1)C(=O)OCC (racemic)
141 to 143 | O=S(=O)(Nc1cccc(CCOCc2csc(-c3ccc(F)c(Cl)c3)n2)c1)C(F)(F)F
188 to 191 | Cn1c(CCC(=O)O)ccc1C(=O)c1ccc(Cl)cc1
59 to 60 | CCOC(=O)N1CCN(CCCCCCNc2cc(OC)cc3c(C)ccnc23)CC1
59 to 60 | CCOC(=O)Cc1nc(-c2ccc(F)cc2)oc1C(C)C
142 to 144 | CCSCCOC(=O)C1=C(C)NC(C)=C(C(=O)OCC=Cc2ccccc2)C1c1cccc([N+](=O)[O-])c1 (configuration not stated)
125 to 127 | CNC(=NS(=O)(=O)c1ccc(C)cc1)Nc1cc(C(C)c2ccc(-c3ccccc3)c(F)c2)on1 (configuration not stated)
151 to 153 | CC(Oc1ncn(-c2ccc(Cl)cc2Cl)n1)C(=O)O (configuration not stated)
134 to 137 | Cc1ccc(-n2cccc2-c2ccc(S(C)(=O)=O)cc2)cc1C

From a melting point compilation (Tetko et al.; mined from patent text by program, amines drawn as free bases though some values may be those of a salt)
